Patent publication US8679478B2, “Methods of lysosomal storage disease therapy” (Duke University, priority 2010, dated 2014)

Assays:
Type in all cases: in vivo, mouse
[1] = tested on: immune tolerant GAA-KO mice; assay: Wire hang testing, ERT plus β2 agonist; conditions: clenbuterol plus ERT v. ERT alone
Experimental: GAA-KO mice were administered four weekly doses of rhGAA (20 mg/kg), and treated with medium dose clenbuterol (n=7), albuterol (n=4) or untreated (n=6 or 3). […] Mean+/−standard deviation are shown. P values indicate statistically significant differences (lines).
Two β2 agonists were evaluated in combination with ERT, clenbuterol and albuterol. The dose of clenbuterol was reduced 5-fold from the concentration used in Example 4, to 6 mg/l in drinking water, while albuterol was evaluated at the higher dose (30 mg/l in drinking water). Groups of 3 month-old immune tolerant GAA-KO mice (Raben et al., Human Mol. Genet., 2001, 10:2039-2047) were treated with four weekly doses of rhGAA (20 mg/kg body weight), with or without concurrent β2 agonist treatment.
Mice were sacrificed 7 days after the last injection. Selected tissues were collected for GAA enzyme activity and glycogen content analyses. […] GAA activity and glycogen content analyses, Rotarod testing, and Western blot detection of CI-MPR was performed essentially as described (Koeberl et al., Mol. Genet. Metab., 2011, 103:107-112. Wire hang testing was performed with a 0.5 cm mesh hardware cloth fixed to an 8 by 10 inch frame. Mice were placed on the wire mesh, which was slowly inverted 6 inches over a cage containing paper bedding. The latency, or time until the mouse fell into the cage, was recorded.

GAA-KO mice [2] = assay: Rotarod testing, liver-targeted gene therapy plus clenbuterol
Experimental: FIG. 4A-4B depicts enhanced Rotarod performance and weight gain following liver-targeted gene therapy plus clenbuterol treatment. The GAA-KO mice (5 per group) were injected with AAV-LSPhGAA (2×10^10 vector particles/mouse). Vector treated mice were treated with clenbuterol or untreated. Non-vector treated GAA-KO mice were treated with clenbuterol or untreated to serve as controls. Mice were euthanized for tissue analysis 4 weeks after vector injection. […] Mean+/−standard deviation are shown. Statistically significant differences indicated (*=p<0.05; **=p<0.01).
(§1) For in vivo analysis of AAV vectors, stocks were administered intravenously (via the retroorbital sinus) in 3 month-old and 15 month-old GAA-KO mice, and to 3 month-old tolerant GAA-KO and DKO mice. Clenbuterol (30 μg/ml) was administered to groups of 3 month-old vector-injected and mock-injected male GAA-KO mice in drinking water for 28 days. At the indicated time points post-injection, tissue samples were obtained and processed as described below. All animal procedures were done in accordance with Duke University Institutional Animal Care and Use Committee-approved guidelines. GAA activity and glycogen content were analyzed essentially as described (Sun et al., Mol. Ther., 2005, 11:889-898; Sun et al., Mol. Ther., 2005, 11: 57-65). Rotarod testing was performed essentially as described (Sun, B. D. et al. 2005). […]

GAA-KO mice [3] = assay: Rotarod testing, ERT (rhGAA) plus clenbuterol; conditions: rhGAA 20 mg/kg weekly x4 plus clenbuterol v. ERT alone; male mice; p=0.04 at 1 week
Experimental: GAA-KO mice were administered four weekly doses of rhGAA (20 mg/kg), and treated with clenbuterol (n=5) or ERT alone (n=5). […] Mean+/−standard deviation are shown. Statistically significant differences indicated (*=p<0.05; **=p<0.01).
as §1, with “2005). Western blotting of hGAA was performed essentially as described (Amalfitano et al., Proc. Natl. Acad. Sci. USA, 1999, 96: 8861-8866) using the hGAA monoclonal antibody (courtesy of Genzyme Corp., Framingham, Mass.) and the CI-MPR antibody (catalog number GTX28093; Gene Tex, Irvine, Calif.).” for “2005).”

GAA-KO mice [4] = assay: Glycogen content in muscles, ERT plus clenbuterol or albuterol; conditions: for glycogen content for quadriceps: p<0.001; for Glycogen content: ERT plus clenbuterol v. ERT alone
Experimental: FIG. 8A-8C depicts increased GAA uptake and increased glycogen clearance in GAA-KO mice following clenbuterol treatment and ERT. […] GAA-KO mice were administered four weekly doses of rhGAA (20 mg/kg), and treated with clenbuterol (n=6) or untreated (n=5). […] Mean+/−standard deviation are shown. Statistically significant differences indicated (*=p<0.05; **=p<0.01).
GAA-KO mice were treated with weekly rhGAA (20 mg/kg): with medium clenbuterol, […] (n=6), with low clenbuterol, 1.3 mg/ml (n=6), with albuterol 30 mg/ml (n=4), or without drug treatment (n=3). Drugs were administered in the drinking water. Mean+/−s.d. shown. Statistically significant differences indicated (*=p<0.05; **=p<0.01).
(§2) For in vivo analysis of AAV vectors, stocks were administered intravenously (via the retroorbital sinus) in 3 month-old and 15 month-old GAA-KO mice, and to 3 month-old tolerant GAA-KO and DKO mice. Clenbuterol (30 μg/ml) was administered to groups of 3 month-old vector-injected and mock-injected male GAA-KO mice in drinking water for 28 days. At the indicated time points post-injection, tissue samples were obtained and processed as described below. All animal procedures were done in accordance with Duke University Institutional Animal Care and Use Committee-approved guidelines. GAA activity and glycogen content were analyzed essentially as described (Sun et al., Mol. Ther., 2005, 11:889-898; Sun et al., Mol. Ther., 2005, 11: 57-65). Rotarod testing was performed essentially as described (Sun, B. D. et al. 2005). Western blotting of hGAA was performed essentially as described (Amalfitano et al., Proc. Natl. Acad. Sci. USA, 1999, 96: 8861-8866) using the hGAA monoclonal antibody (courtesy of Genzyme Corp., Framingham, Mass.) and the CI-MPR antibody (catalog number GTX28093; Gene Tex, Irvine, Calif.).
The efficacy from gene therapy was increased by β2 agonist stimulation from clenbuterol treatment, and this benefit might be expected to affect ERT in Pompe disease, as well. Therefore, groups of 3 month-old GAA-KO mice were treated with four weekly doses of rhGAA (20 mg/kg), with or without concurrent clenbuterol treatment.

CI-MPR = assay: Western blot and densitometry of CI-MPR expression in skeletal muscle and brain; conditions: following clenbuterol treatment
Experimental: Western blot detection of CI-MPR and control proteins, β-actin or glyceraldehydes-3-phosphate dehydrogenase (GAPDH) in the tissues of GAA-KO mice is shown, with molecular weights indicated. Each lane represents an individual mouse. Equivalent quantities of tissue homogenate were loaded for each mouse. […] Mean+/−standard deviation are shown. Statistically significant differences indicated (*=p<0.05; **=p<0.01).
as §2

CC(C)(C)NCC(O)c1cc(Cl)c(N)c(Cl)c1 (stereo not shown) [clenbuterol]
Wire hang latency [1]: increased significantly | Rotarod latency increase (GAA-KO mice [2]; clenbuterol alone v. mock treatment, p=0.02): 26% | Rotarod latency increase (GAA-KO mice [2]; vector plus clenbuterol (30 μg/ml drinking water) v. vector alone, 4 weeks, p<2×10^−5): 75% | Rotarod latency (GAA-KO mice [3]): increased Rotarod latency | glycogen content for quadriceps (GAA-KO mice [4]; ERT plus clenbuterol 1.3 μg/ml (Low) in drinking water): significantly reduced | glycogen content for quadriceps (GAA-KO mice [4]; ERT plus clenbuterol 6 μg/ml (Medium) in drinking water): significantly reduced | Glycogen content (GAA-KO mice [4]; diaphragm, p=0.0002): significantly reduced | glycogen clearance (GAA-KO mice [4]; gastrocnemius, ERT plus clenbuterol): absence of increased glycogen clearance | Glycogen content (GAA-KO mice [4]; quadriceps, p=0.00002): significantly reduced | Glycogen content (GAA-KO mice [4]; tibialis anterior, p=0.002): significantly reduced | CI-MPR signal (densitometry of Western blots) (CI-MPR; EDL): increased | CI-MPR signal (densitometry of Western blots) (CI-MPR; cerebellum): increased | CI-MPR signal (densitometry of Western blots) (CI-MPR; cerebrum): increased
